Assay results reported in patent US8835640B1, “Nicotine derivatives” (priority 2011, dated 2014).
Values after ≈ are worked out from the molar mass of the structure shown.

How the values were obtained:
[1] = tested on: fungal cultures (Candida albicans & Cryptococcus neoformans); assay: Kirby-Bauer disc diffusion, fungi; format: cell-based
Streptococcus mutans = assay: Kirby Bauer disc diffusion, Streptococcus mutans; format: cell-based
Male Wistar rats = assay: Eddy Hot Plate method; format: in vivo; details: 0.5 mg/kg and 1 mg/kg s.c., 55±0.5° C., compared to pentazocine 20 mg/kg s.c.
Method: Male Wistar rats initially weighing 180-200 g were divided into the following groups of six animals each as follows: • Experiment-I: • 1. Group-I: Control—10% Dimethyl sulfoxide (DMSO) (0.5 ml s.c) • 2. Group-II: Standard—Pentazocine (20 mg/kg body weight, s.c.) • 3. Group-III: Compound-ARP100102 (0.5 mg/kg body weight, s.c.) • Experiment-II: • Same as Experiment I except Group III dosage was 1 mg/kg body weight. • The hot plate method was originally developed by Woolfe and MacDonald (1944). The paws of rat are very sensitive to heat at temperatures which are not damaging to the skin. The response is in the form of jumping, withdrawal of paws or licking of the paws (Eddy and Leimback, 1953). The animals were placed on Eddy's hot plate at a temperature of 55±0.5° C. […] Reaction time and the type of response were noted using a stopwatch. The latency was recorded before and after 30, 60, 90 and 120 minutes following s.c. injection of test compounds (0.5 mg and 1 mg·kg), standard drug (pentazocine) and control vehicle respectively. The dose selection of the test compounds was based on the literature of nicotine (0.32-1.6 mg/kg s.c.). Average reaction time was then calculated and the percentage variation calculated using the following ratio: Percentage protection=Drug latency−Baseline latency×100Baseline latency

Corynebacterium = assay: Kirby Bauer disc diffusion, Corynebacterium; format: cell-based
[2] = tested on: M. tuberculosis (H37RV Strain) ATCC 25177; assay: Anti-TB activity, microplate Alamar Blue assay (MABA); format: cell-based, Mycobacterium Tuberculosis; details: for MIC: Mycobacterium tuberculosis, 120 h, read-out: MIC (minimum inhibition concentration); for MIC (minimum inhibition concentration): lowest drug concentration preventing colour change blue to pink, 37° C., five days, tested 100 to 0.2 μg/ml
[3] = tested on: Gram positive bacteria (Staphylococcus aureus, Enterococcus faecalis), Gram negative bacteria (E. Coli and Pseudomonas aeruginosa); assay: Kirby-Bauer disc diffusion, bacteria; format: cell-based
Male Albino Mice = assay: Acetic Acid-Induced Writhing Response test; format: in vivo
Method: Group-I: Control-Normal saline (0.1 ml i.p./10 gm) • 2. Group-II: Diclofenac (10 mg/kg body weight, i.p.) • 3. Group-V: Compound-ARP100120 (3 mg/kg body weight, i.p.) • The number of writhes (abdominal muscular contractions), stretching of the hind limbs and trunk twisting were counted 5 minutes after the injection of 1% acetic acid (v/v, 0.1 mL/10 g body weight, i.p.). The data collected represented the total number of writhes observed in duration of 10 minutes (5-15 minutes after the injection). Percentage inhibition was then calculated. Percentage inhibition ═(N−N^t/N)×100, where N is the average number of writhing of control group and N^t is the average number of writhing of test group. • Results are as follows: […]

Q: Which results are given for `CC(=O)c1ccc(-c2cncc(C(=O)C3CCN(C)C3=O)c2)s1` (stereo not shown) [ARP100101, 3-(5-(5-acetylthiophen-2-yl)nicotinoyl)-1-methylpyrrolidin-2-one]?
A: antifungal activity (zone of inhibition, disc diffusion) ([1]; 50 μg): exhibit antifungal activity; antifungal activity (zone of inhibition, disc diffusion) ([1]; 100 μg): exhibit antifungal activity

Q: For `CN1CCC(C(=O)c2cncc(-c3ccc(F)cc3)c2)C1=O` (stereo not shown) [ARP100102, 3-(5-(4-fluorophenyl)nicotinoyl)-1-methylpyrrolidin-2-one], which “antifungal activity (zone of inhibition, disc diffusion)” value ([1]; 5 μg) is on record?
A: exhibit antifungal activity

Q: What about the “antifungal activity (zone of inhibition, disc diffusion)” value ([1]; 25 μg) of the same molecule?
A: exhibit antifungal activity

Q: And the “antifungal activity (zone of inhibition, disc diffusion)” value ([1]; 50 μg)?
A: exhibit antifungal activity

Q: What about the “antifungal activity (zone of inhibition, disc diffusion)” value ([1]; 100 μg) of the same molecule?
A: exhibit antifungal activity

Q: And the “antibacterial activity against Streptococcus mutans (inhibition zone)” value (Streptococcus mutans; 50 μg)?
A: good antibacterial activity

Q: And the “antibacterial activity against Streptococcus mutans (inhibition zone)” value (Streptococcus mutans; 100 μg)?
A: good antibacterial activity

Q: What about the “analgesic activity (reaction time in hot plate test)” value (Male Wistar rats) of the same molecule?
A: demonstrate analgesic activity

Q: And the “antibacterial activity against Corynebacterium (inhibition zone)” value (Corynebacterium; 50 μg)?
A: good antibacterial activity

Q: And the “antibacterial activity against Corynebacterium (inhibition zone)” value (Corynebacterium; 100 μg)?
A: good antibacterial activity

Q: And the MIC [2]?
A: ≤ 0.05 µg/mL

Q: `Cc1cccc(-c2cncc(C(=O)C3CCN(C)C3=O)c2)c1` (stereo not shown) [ARP100104, 1-methyl-3-(5-m-tolylnicotinoyl)pyrrolidin-2-one] was tested. Which “antifungal activity (zone of inhibition, disc diffusion)” value ([1]; 100 μg) did it give?
A: exhibit antifungal activity

Q: `CN1CCC(C(=O)c2cncc(-c3ccc(Cl)cc3)c2)C1=O` (stereo not shown) [ARP100105, 3-(5-(4-chlorophenyl)nicotinoyl)-1-methylpyrrolidin-2-one] was tested. Which “antifungal activity (zone of inhibition, disc diffusion)” value ([1]; 50 μg) did it give?
A: both antibacterial and antifungal activity

Q: And the “antifungal activity (zone of inhibition, disc diffusion)” value ([1]; 100 μg)?
A: both antibacterial and antifungal activity

Q: What about the “antibacterial activity (zone of inhibition, disc diffusion)” value ([3]; 50 μg) of the same molecule?
A: both antibacterial and antifungal activity

Q: What about the “antibacterial activity (zone of inhibition, disc diffusion)” value ([3]; 100 μg) of the same molecule?
A: both antibacterial and antifungal activity

Q: Which “antifungal activity (zone of inhibition, disc diffusion)” value ([1]; 100 μg) does the source give for `CN1CCC(C(=O)c2cncc(-c3ccc(C=O)cc3)c2)C1=O` (stereo not shown) [ARP100106, 4-(5-(1-methyl-2-oxopyrrolidine-3-carbonyl)pyridin-3-yl)benzaldehyde] here?
A: both antibacterial and antifungal activity

Q: And the “antibacterial activity (zone of inhibition, disc diffusion)” value ([3]; 100 μg)?
A: both antibacterial and antifungal activity

Q: Which “antifungal activity (zone of inhibition, disc diffusion)” value ([1]; 100 μg) does the source give for `COc1ccc(-c2cncc(C(=O)C3CCN(C)C3=O)c2)cc1` (stereo not shown) [ARP100108, 3-(5-(4-methoxyphenyl)nicotinoyl)-1-methylpyrrolidin-2-one] here?
A: exhibit antifungal activity

Q: For `CN1CCC(C(=O)c2cncc(-c3cccc(F)c3)c2)C1=O` (stereo not shown) [ARP100111, 3-(5-(3-fluorophenyl)nicotinoyl)-1-methylpyrrolidin-2-one], which “antibacterial activity on both gram positive and gram negative bacteria” value ([3]; 100 μg) is on record?
A: showed antibacterial activity

Q: How did the “antifungal activity (zone of inhibition, disc diffusion)” value ([1]; 50 μg) turn out when `CN1CCC(C(=O)c2cncc(-c3ccc4ccccc4c3)c2)C1=O` (stereo not shown) [ARP100119, 1-methyl-3-(5-(naphthalen-2-yl)nicotinoyl)pyrrolidin-2-one] was run?
A: exhibit antifungal activity

Q: What about the “antifungal activity (zone of inhibition, disc diffusion)” value ([1]; 100 μg) of the same molecule?
A: exhibit antifungal activity

Q: With `CC(=O)Oc1ccc(-c2cncc(C(=O)C3CCN(C)C3=O)c2)cc1` (stereo not shown) [ARP100120, 4-(5-(1-methyl-2-oxopyrrolidine-3-carbonyl)pyridin-3-yl)phenyl acetate] as the molecule, how does the “antifungal activity (zone of inhibition, disc diffusion)” value ([1]; 100 μg) read?
A: exhibit antifungal activity

Q: What about the “analgesic activity (writhing test)” value (Male Albino Mice; 3 mg/kg i.p.) of the same molecule?
A: demonstrate analgesic activity

Q: What does the source list for `CN1CCC(C(=O)c2cncc(-c3cccc(C=O)c3)c2)C1=O` (stereo not shown) [ARP100121, 3-(5-(1-methyl-2-oxopyrrolidine-3-carbonyl)pyridin-3-yl)benzaldehyde]?
A: antifungal activity (zone of inhibition, disc diffusion) ([1]; 50 μg): exhibit antifungal activity; antifungal activity (zone of inhibition, disc diffusion) ([1]; 100 μg): exhibit antifungal activity

Q: Which “antifungal activity (zone of inhibition, disc diffusion)” value ([1]; 100 μg) does the source give for `CCCCc1cncc(C(=O)C2CCN(C)C2=O)c1` (stereo not shown) [ARP100122, 3-(5-butylnicotinoyl)-1-methylpyrrolidin-2-one] here?
A: exhibit antifungal activity

Q: With `O=C(O)c1cn(C2CC2)c2cc(N3CCNCC3)c(F)cc2c1=O` [Ciprofolxacin] as the molecule, how does the “MIC (minimum inhibition concentration)” value [2] read?
A: 3.125 µg/mL (≈ 9.43 µM)

Q: Which results are given for `O=C(O)Cc1ccccc1Nc1c(Cl)cccc1Cl` [Diclofenac, reference compound]?
A: Number of Writhing (Male Albino Mice; 5-15 minutes after 1% acetic acid i.p., Diclofenac 10 mg/kg i.p., ARP100120 3 mg/kg i.p.): 34.50 ± 1.586; Percentage Inhibition (writhing) (Male Albino Mice; versus control, Diclofenac 10 mg/kg i.p., ARP100120 3 mg/kg i.p.): 26.86%

Q: Which “antibacterial activity (disc diffusion)” value ([3]; 1000 μg/ml) does the source give for `CN1CCCC1c1cccnc1` (stereo not shown) [Nicotine] here?
A: did not show any antibacterial activity

Q: For `NC(=O)c1cnccn1` [Pyrazinamide], which MIC [2] is on record?
A: 3.12 µg/mL (≈ 25.4 µM)

Q: For `CN[C@@H]1[C@H](O[C@H]2[C@H](O[C@H]3[C@H](O)[C@@H](O)[C@H](N=C(N)N)[C@@H](O)[C@@H]3N=C(N)N)O[C@@H](C)[C@]2(O)C=O)O[C@@H](CO)[C@H](O)[C@H]1O` [Steptomycin], which “MIC (minimum inhibition concentration)” value [2] is on record?
A: 6.25 µg/mL (≈ 10.7 µM)
